Data reported in the NIST ThermoML archive (doi:10.1016/j.fluid.2018.10.006).
± gives the expanded uncertainty stated by the source.

Conditions: Fluid (supercritical or subcritical phases), Coaxial cylinder method

CCCCCC [hexane]
Conditions	thermal conductivity [W/m/K]
508.92 K, 3088 kPa	0.1061 ± 0.0049
508.92 K, 3089 kPa	0.1087 ± 0.005
508.92 K, 3090 kPa	0.1096 ± 0.0051
508.92 K, 3091 kPa	0.11 ± 0.0051
508.92 K, 3092 kPa	0.1093 ± 0.005
508.92 K, 3093 kPa	0.1071 ± 0.0049
508.92 K, 3094 kPa	0.1049 ± 0.0048
508.92 K, 3095 kPa	0.1028 ± 0.0047
508.92 K, 3096 kPa	0.101 ± 0.0047
508.92 K, 3097 kPa	0.09872 ± 0.0046
508.92 K, 3098 kPa	0.0967 ± 0.0044
508.92 K, 3099 kPa	0.0947 ± 0.0044
508.92 K, 3100 kPa	0.09356 ± 0.0043
508.92 K, 3101 kPa	0.09223 ± 0.0043
508.92 K, 3102 kPa	0.09134 ± 0.0042
508.92 K, 3103 kPa	0.09045 ± 0.0042
508.92 K, 3104 kPa	0.08916 ± 0.0041
508.92 K, 3105 kPa	0.08837 ± 0.0041
508.92 K, 3106 kPa	0.08751 ± 0.004
508.92 K, 3107 kPa	0.08708 ± 0.004
508.92 K, 3108 kPa	0.08666 ± 0.004
508.92 K, 3109 kPa	0.08604 ± 0.004
508.92 K, 3110 kPa	0.08542 ± 0.0039
508.92 K, 3111 kPa	0.08502 ± 0.0039
508.92 K, 3112 kPa	0.08462 ± 0.0039
508.92 K, 3113 kPa	0.08398 ± 0.0039
508.92 K, 3114 kPa	0.08318 ± 0.0038
508.92 K, 3115 kPa	0.08318 ± 0.0038
508.92 K, 3120 kPa	0.08124 ± 0.0038
508.92 K, 3125 kPa	0.07976 ± 0.0037
508.92 K, 3130 kPa	0.07868 ± 0.0037
508.92 K, 3135 kPa	0.07761 ± 0.0037
508.92 K, 3140 kPa	0.07664 ± 0.0036
508.92 K, 3145 kPa	0.07595 ± 0.0036
508.92 K, 3150 kPa	0.07561 ± 0.0035
508.92 K, 3155 kPa	0.07461 ± 0.0035
508.92 K, 3159 kPa	0.07461 ± 0.0035
508.92 K, 3160 kPa	0.07429 ± 0.0035
508.92 K, 3165 kPa	0.07396 ± 0.0034
508.92 K, 3170 kPa	0.07364 ± 0.0034
508.92 K, 3175 kPa	0.07309 ± 0.0034
508.92 K, 3180 kPa	0.07309 ± 0.0034
508.92 K, 3185 kPa	0.07278 ± 0.0034
508.92 K, 3190 kPa	0.07248 ± 0.0034
508.92 K, 3195 kPa	0.07217 ± 0.0034
508.92 K, 3200 kPa	0.07227 ± 0.0034
508.92 K, 3205 kPa	0.07189 ± 0.0034
508.92 K, 3215 kPa	0.07157 ± 0.0033
508.92 K, 3220 kPa	0.07128 ± 0.0033
508.92 K, 3225 kPa	0.07128 ± 0.0033
508.92 K, 3230 kPa	0.07107 ± 0.0033
508.92 K, 3235 kPa	0.07101 ± 0.0033
508.92 K, 3240 kPa	0.07092 ± 0.0033
508.92 K, 3245 kPa	0.07081 ± 0.0033
508.92 K, 3250 kPa	0.07098 ± 0.0033
508.92 K, 3255 kPa	0.07098 ± 0.0033
508.92 K, 3260 kPa	0.07098 ± 0.0033
508.92 K, 3265 kPa	0.07069 ± 0.0033
508.92 K, 3270 kPa	0.07069 ± 0.0033
508.92 K, 3275 kPa	0.07069 ± 0.0033
508.92 K, 3280 kPa	0.07069 ± 0.0033
508.92 K, 3285 kPa	0.07069 ± 0.0033
508.92 K, 3290 kPa	0.0704 ± 0.0033
508.92 K, 3295 kPa	0.0704 ± 0.0033
508.92 K, 3300 kPa	0.0704 ± 0.0033
508.92 K, 3310 kPa	0.0704 ± 0.0033
508.92 K, 3320 kPa	0.07069 ± 0.0033
508.92 K, 3330 kPa	0.07069 ± 0.0033
508.92 K, 3340 kPa	0.07069 ± 0.0033
508.92 K, 3350 kPa	0.0707 ± 0.0033
508.92 K, 3355 kPa	0.07041 ± 0.0033
508.92 K, 3360 kPa	0.07041 ± 0.0033
508.92 K, 3365 kPa	0.07041 ± 0.0033
508.92 K, 3370 kPa	0.07041 ± 0.0033
508.92 K, 3375 kPa	0.07041 ± 0.0033
508.92 K, 3380 kPa	0.07041 ± 0.0033
508.92 K, 3385 kPa	0.07041 ± 0.0033
508.92 K, 3390 kPa	0.07013 ± 0.0033
508.92 K, 3395 kPa	0.07013 ± 0.0033
508.92 K, 3500 kPa	0.07013 ± 0.0033
508.92 K, 3535 kPa	0.07013 ± 0.0033
508.92 K, 3540 kPa	0.07013 ± 0.0033
508.92 K, 3545 kPa	0.06984 ± 0.0033
508.92 K, 3550 kPa	0.07041 ± 0.0033
508.92 K, 3555 kPa	0.07041 ± 0.0033
508.92 K, 3560 kPa	0.07041 ± 0.0033
508.92 K, 3565 kPa	0.07041 ± 0.0033
508.92 K, 3570 kPa	0.07041 ± 0.0033
508.92 K, 3605 kPa	0.06984 ± 0.0033
508.92 K, 3670 kPa	0.06984 ± 0.0033
508.92 K, 3690 kPa	0.06984 ± 0.0033
508.92 K, 3700 kPa	0.0707 ± 0.0033
508.92 K, 3900 kPa	0.0707 ± 0.0033
508.92 K, 4000 kPa	0.0707 ± 0.0033
508.92 K, 4300 kPa	0.07129 ± 0.0033
508.92 K, 4400 kPa	0.07159 ± 0.0034
508.92 K, 4500 kPa	0.07188 ± 0.0034
508.92 K, 4600 kPa	0.07219 ± 0.0034
508.92 K, 4700 kPa	0.07219 ± 0.0034
508.92 K, 4800 kPa	0.0725 ± 0.0034
508.92 K, 4900 kPa	0.0725 ± 0.0034
508.92 K, 5000 kPa	0.0728 ± 0.0034
508.92 K, 5100 kPa	0.0728 ± 0.0034
508.92 K, 5200 kPa	0.07342 ± 0.0034
508.92 K, 5300 kPa	0.07342 ± 0.0034
508.92 K, 5400 kPa	0.07342 ± 0.0034
508.92 K, 5500 kPa	0.07373 ± 0.0034
508.92 K, 5600 kPa	0.07437 ± 0.0035
508.92 K, 5800 kPa	0.07437 ± 0.0035
508.92 K, 6000 kPa	0.07437 ± 0.0035
508.92 K, 6100 kPa	0.07437 ± 0.0035
508.92 K, 6200 kPa	0.07469 ± 0.0035
508.92 K, 6400 kPa	0.07501 ± 0.0035
508.92 K, 6500 kPa	0.07534 ± 0.0035
508.92 K, 7000 kPa	0.07634 ± 0.0035
508.92 K, 7500 kPa	0.07702 ± 0.0036
508.92 K, 8000 kPa	0.07771 ± 0.0036
508.92 K, 8500 kPa	0.07771 ± 0.0036
508.92 K, 9000 kPa	0.07828 ± 0.0036
508.92 K, 9500 kPa	0.07915 ± 0.0037
508.92 K, 10000 kPa	0.07951 ± 0.0037
509.85 K, 2686 kPa	0.04642 ± 0.0023
509.85 K, 2700 kPa	0.04668 ± 0.0023
509.85 K, 2710 kPa	0.04655 ± 0.0023
509.85 K, 2720 kPa	0.04706 ± 0.0023
509.85 K, 2730 kPa	0.0472 ± 0.0023
509.85 K, 2740 kPa	0.04733 ± 0.0024
509.85 K, 2750 kPa	0.04759 ± 0.0024
509.85 K, 2760 kPa	0.04786 ± 0.0024
509.85 K, 2770 kPa	0.04813 ± 0.0024
509.85 K, 2780 kPa	0.04827 ± 0.0024
509.85 K, 2790 kPa	0.04841 ± 0.0024
509.85 K, 2800 kPa	0.04854 ± 0.0024
509.85 K, 2805 kPa	0.04868 ± 0.0024
509.85 K, 2810 kPa	0.04882 ± 0.0024
509.85 K, 2815 kPa	0.0491 ± 0.0024
509.85 K, 2820 kPa	0.04925 ± 0.0024
509.85 K, 2825 kPa	0.04939 ± 0.0024
509.85 K, 2830 kPa	0.04953 ± 0.0024
509.85 K, 2835 kPa	0.04968 ± 0.0024
509.85 K, 2840 kPa	0.04957 ± 0.0024
509.85 K, 2845 kPa	0.04972 ± 0.0024
509.85 K, 2850 kPa	0.04986 ± 0.0024
509.85 K, 2855 kPa	0.05001 ± 0.0025
509.85 K, 2860 kPa	0.05016 ± 0.0025
509.85 K, 2865 kPa	0.05031 ± 0.0025
509.85 K, 2870 kPa	0.05046 ± 0.0025
509.85 K, 2875 kPa	0.05061 ± 0.0025
509.85 K, 2880 kPa	0.05077 ± 0.0025
509.85 K, 2885 kPa	0.05123 ± 0.0025
509.85 K, 2890 kPa	0.05123 ± 0.0025
509.85 K, 2895 kPa	0.05139 ± 0.0025
509.85 K, 2900 kPa	0.05154 ± 0.0025
509.85 K, 2905 kPa	0.0517 ± 0.0025
509.85 K, 2910 kPa	0.05186 ± 0.0025
509.85 K, 2915 kPa	0.05218 ± 0.0026
509.85 K, 2920 kPa	0.05243 ± 0.0026
509.85 K, 2925 kPa	0.05259 ± 0.0026
509.85 K, 2930 kPa	0.05293 ± 0.0026
509.85 K, 2935 kPa	0.05309 ± 0.0026
509.85 K, 2940 kPa	0.05326 ± 0.0026
509.85 K, 2945 kPa	0.05344 ± 0.0026
509.85 K, 2950 kPa	0.05378 ± 0.0026
509.85 K, 2955 kPa	0.05395 ± 0.0026
509.85 K, 2960 kPa	0.05431 ± 0.0026
